Measurements reported in US6006753A, “Use of GLP-1 or analogs to abolish catabolic changes after surgery” (Eli Lilly and Company, priority 1997, dated 1999).

Key:
[1] = Blood glucose in NIDDM patients continuously infused for ten hours during the night (Example 2); type: in vivo, human; conditions: five NIDDM patients
Method: GLP-1 (7-36) amide was administered by a subcutaneous infusion at a dose rate of 1.2 pmol/kg/hr, for ten hours during the night, to five patients having non-insulin dependent diabetes (NIDDM). […] The rate of insulin infusion was adjusted every two hours to achieve optimum control, and to avoid hypoglycemia.

[2] = Blood glucose in NIDDM patients infused for three hours at each meal during the day (Example 3); type: in vivo, human; conditions: five NIDDM patients
From the text: During the day, GLP-1 (7-36) amide was infused into five NIDDM patients for three hours during breakfast, lunch, and dinner.

[3] = overnight glucose infusion 5 mg/kg/min before elective abdominal surgery (Ljungqvist 1994); cited from earlier work
[4] = Indirect calorimetry: substrate oxidation rates and energy expenditure during and after surgery; type: in vivo, human
Method: Indirect calorimetry (Deltatrac® Dansjoo, Sweden) [Frayn, K. N. J. Appl. Physiol. 55(2):628-34 (1983); Takala, J., et al., Crit. Care Med. 17(10): 1041-47 (1989)] was performed for 30 minutes during the basal phase, twice during surgery (early op and late op), and during the last 30 minutes of the preop and postop clamps. Timed sampling of urine for analysis of urinary urea excretion was performed. After correction for changes in urea pool size [Tappy, L, et al., Diabetes 37:1212-16 (1988)], non-protein energy expenditure (EE), respiratory quotients (RQ) and substrate oxidation rates were calculated.

[5] = Hormone levels (RIA) in patients undergoing hipartroplasty with hyperinsulinemic, normoglycemic clamp before and during surgery; type: in vivo, human; set-up: Glucagon / Cortisol: unit not given here
Method: (§1) After one hour at steady state conditions, all patients underwent a standardized surgical treatment (hipartroplasty). […] The hyperinsulinemic, normoglycemic clamp was then maintained during surgery and continued for a further 3-4 hours after surgery. The data will be presented according to the following nomenclature:
(§2) The control group received no basal or preop clamp on the day of surgery.
Blood samples were collected from a heated hand vein repeatedly during the basal, preop, early op, late op and postop periods. Blood glucose was measured immediately upon collection using the glucose oxidase method (Yellow Springs Instruments, Yellow Springs, Ohio) [Hugget, A. S., et al., Lancet 2:368-70 (1957)]. […] Methods of hormone radioimmunoassay, Academic Press, New York and London (1979) pp. 643-56]; and glucagon (Euro-Diagnostica AB, Malm6, Sweden) [Faloona, G. R., et al., Glucagpn radioimmunoassay technique. 5 Vol. 1: Academic Press, New York (1974)].
(§3) All values are individual values, or mean+SEM (standard error of the mean). Statistical significance is accepted at p<0.05 using Wilcoxon's signed rank test and the Mann-Whitney U-test for paired and unpaired data respectively.

[6] = Glucose infusion rate (GIR) in hyperinsulinemic, normoglycemic clamp, preop vs postop, elective surgery patients; type: in vivo, human
Method: as §1, §2, §3

[7] = Hour 21:00, continuous infusion for ten hours during the night (GLP-1 (7-36) amide sc 1.2 pmol/kg/hr; insulin rate adjusted every two hours)
[8] = Hour 7:00, GLP-1 (7-36) amide infused three hours from start of each meal, insulin sc injection just before each meal
[9] = insulin group vs control, p<0.05
[10] = basal, 30 min before start of insulin infusion, insulin group n=7, mean ± SEM
[11] = early op, insulin 0.8 mU/kg/min iv, n=7
[12] = late op, insulin 0.8 mU/kg/min iv, n=7
[13] = postop clamp, insulin 0.8 mU/kg/min iv, n=7
[14] = preop clamp, insulin 0.8 mU/kg/min iv, n=7

**Q.** Which results are given for `CC[C@H](C)[C@H](NC(=O)[C@H](Cc1ccccc1)NC(=O)[C@H](CCC(=O)O)NC(=O)[C@H](CCCCN)NC(=O)[C@H](C)NC(=O)[C@H](C)NC(=O)[C@H](CCC(N)=O)NC(=O)CNC(=O)[C@H](CCC(=O)O)NC(=O)[C@H](CC(C)C)NC(=O)[C@H](Cc1ccc(O)cc1)NC(=O)[C@H](CO)NC(=O)[C@H](CO)NC(=O)[C@@H](NC(=O)[C@H](CC(=O)O)NC(=O)[C@H](CO)NC(=O)[C@@H](NC(=O)[C@H](Cc1ccccc1)NC(=O)[C@@H](NC(=O)CNC(=O)[C@H](CCC(=O)O)NC(=O)[C@H](C)NC(=O)[C@@H](N)Cc1c[nH]cn1)[C@@H](C)O)[C@@H](C)O)C(C)C)C(=O)N[C@@H](C)C(=O)N[C@@H](Cc1c[nH]c2ccccc12)C(=O)N[C@@H](CC(C)C)C(=O)N[C@H](C(=O)N[C@@H](CCCCN)C(=O)NCC(=O)N[C@@H](CCCNC(=N)N)C(N)=O)C(C)C` [GLP-1 (7-36) amide, GLP-1(7-36) amide]?
**A.** Average Blood Glucose ([1]; Hour 0:00, night infusion): 4.4 mM; Average Blood Glucose ([1]; Hour 1:00, night infusion): 4.4 mM; Average Blood Glucose ([1]; Hour 2:00, night infusion): 4.8 mM; Average Blood Glucose ([1]; Hour 3:00, night infusion): 5.2 mM; Average Blood Glucose ([1]; Hour 4:00, night infusion): 5.4 mM; Average Blood Glucose ([1]; Hour 5:00, night infusion): 5.8 mM; Average Blood Glucose ([1]; Hour 6:00, night infusion): 6.0 mM; Average Blood Glucose ([1]; Hour 7:00, night infusion): 6.2 mM; Average Blood Glucose [1, 7]: 7.5 mM; Average Blood Glucose ([1]; Hour 22:00, night infusion): 5.4 mM; Average Blood Glucose ([1]; Hour 23:00, night infusion): 4.1 mM; Metabolic control compared with insulin ([1]; night infusion): better than that achieved by insulin; Effect on blood glucose ([1]; subcutaneous infusion 1.2 pmol/kg/hr, ten hours during the night): nearly normalized blood glucose; Average Blood Glucose [2, 8]: 5.4 mM; Average Blood Glucose ([2]; Hour 8:00, meal-time dosing): 4.9 mM; Average Blood Glucose ([2]; Hour 9:00, meal-time dosing): 5.7 mM; Average Blood Glucose ([2]; Hour 10:00, meal-time dosing): 5.8 mM; Average Blood Glucose ([2]; Hour 11:00, meal-time dosing): 8.1 mM; Average Blood Glucose ([2]; Hour 12:00, meal-time dosing): 9.4 mM; Average Blood Glucose ([2]; Hour 13:00, meal-time dosing): 7.2 mM; Average Blood Glucose ([2]; Hour 14:00, meal-time dosing): 5.3 mM; Average Blood Glucose ([2]; Hour 15:00, meal-time dosing): 7.2 mM; Average Blood Glucose ([2]; Hour 16:00, meal-time dosing): 10.4 mM; Average Blood Glucose ([2]; Hour 17:00, meal-time dosing): 9.2 mM; Average Blood Glucose ([2]; Hour 18:00, meal-time dosing): 5.7 mM; Average Blood Glucose ([2]; Hour 19:00, meal-time dosing): 6.6 mM; Average Blood Glucose ([2]; Hour 20:00, meal-time dosing): 8.3 mM; Average Blood Glucose ([2]; Hour 21:00, meal-time dosing): 9.3 mM; Blood glucose level immediately after terminating each infusion [2]: increased significantly; Post-prandial glucose excursions observed with insulin injection ([2]; while GLP-1 was infused): eliminated

**Q.** With `O=C[C@H](O)[C@@H](O)[C@H](O)[C@H](O)CO` [glucose] as the compound, how does the “Average loss of insulin sensitivity after the operation” value [3] read?
**A.** The value was 32%.

**Q.** Which results are given for “insulin: insulin (Actrapid®, Novo, Copenhagen) in Example 1; insulin comparator in Examples 2 and 3”?
**A.** Substrate oxidation rates at the postop clamp as compared to the preop clamp ([4]; insulin group): no change; Resting energy expenditure (EE) during or after surgery, between groups ([4]; insulin group vs control): did not differ; Fat oxidation rates during surgery [4, 9]: significantly lower; Glucose oxidation rates during surgery [4, 9]: significantly higher; Average Blood Glucose ([1]; Hour 0:00, night infusion): 5.6 mM; Average Blood Glucose ([1]; Hour 1:00, night infusion): 5.1 mM; Average Blood Glucose ([1]; Hour 2:00, night infusion): 5.2 mM; Average Blood Glucose ([1]; Hour 3:00, night infusion): 5.4 mM; Average Blood Glucose ([1]; Hour 4:00, night infusion): 5.7 mM; Average Blood Glucose ([1]; Hour 5:00, night infusion): 6.0 mM; Average Blood Glucose ([1]; Hour 6:00, night infusion): 6.1 mM; Average Blood Glucose ([1]; Hour 7:00, night infusion): 6.1 mM; Average Blood Glucose [1, 7]: 6.9 mM; Average Blood Glucose ([1]; Hour 22:00, night infusion): 6.6 mM; Average Blood Glucose ([1]; Hour 23:00, night infusion): 5.9 mM; C-peptide [5, 10]: .68 ± .09; Cortisol [5, 10]: 171 ± 41; Glucagon [5, 10]: 58 ± 7; C-peptide ([5]; early op (10 to 40 min after initiation of surgery), insulin 0.8 mU/kg/min iv, n=7): .42 ±.06; Cortisol [5, 11]: 234 ± 46; Glucagon [5, 11]: 40 ± 3; C-peptide levels during surgery compared to the control group ([5]; insulin group vs fasted control): lower; Serum insulin levels ([5]; insulin group, during surgery and the postop clamp, 0.8 mU/kg/min iv): around 60 μU/ml; Serum cortisol levels after surgery ([5]; insulin group, vs preop): decreased; Serum glucagon levels after surgery ([5]; insulin group, vs preop, p<0.05): decreased; C-peptide ([5]; late op (last 30 min of surgery), insulin 0.8 mU/kg/min iv, n=7): .58 ± .12; Cortisol [5, 12]: 212 ± 44; Glucagon [5, 12]: 35 ± 4; C-peptide [5, 13]: .52 ± .11; Cortisol [5, 13]: 172 ± 83; Glucagon [5, 13]: 33 ± 4; Cortisol [5, 14]: 266 ± 35; Glucagon [5, 14]: 52 ± 3; C-peptide ([5]; preop clamp, insulin 0.8 mU/kg/min iv, n=7, mean ± SEM): .45 ± .05; Average Blood Glucose [2, 8]: 6.1 mM; Average Blood Glucose ([2]; Hour 8:00, meal-time dosing): 7.0 mM; Average Blood Glucose ([2]; Hour 9:00, meal-time dosing): 9.1 mM; Average Blood Glucose ([2]; Hour 10:00, meal-time dosing): 9.9 mM; Average Blood Glucose ([2]; Hour 11:00, meal-time dosing): 8.2 mM; Average Blood Glucose ([2]; Hour 12:00, meal-time dosing): 6.5 mM; Average Blood Glucose ([2]; Hour 13:00, meal-time dosing): 9.1 mM; Average Blood Glucose ([2]; Hour 14:00, meal-time dosing): 8.1 mM; Average Blood Glucose ([2]; Hour 15:00, meal-time dosing): 7.0 mM; Average Blood Glucose ([2]; Hour 16:00, meal-time dosing): 7.2 mM; Average Blood Glucose ([2]; Hour 17:00, meal-time dosing): 6.5 mM; Average Blood Glucose ([2]; Hour 18:00, meal-time dosing): 7.3 mM; Average Blood Glucose ([2]; Hour 19:00, meal-time dosing): 6.1 mM; Average Blood Glucose ([2]; Hour 20:00, meal-time dosing): 6.0 mM; Average Blood Glucose ([2]; Hour 21:00, meal-time dosing): 6.4 mM; Catabolic changes after surgery ([6]; elevated insulin levels before and maintained throughout the operation): completely abolished; Change in average GIR in the postop clamp compared to the preop clamp ([6]; insulin group n=7, p=0.2): +16±20%; Average GIR during the postop clamp compared to the control group [6, 9]: significantly higher
